Reference: patent US8367723B2, “Selenoquinone-derived active organometallic complexes, methods for synthesizing same, and uses thereof” (Centre National de la Recherche Scientifique—CNRS, priority 2009, dated 2013)

What was measured:
[1] = test system: A2780 ovarian cancer cells; test: MTT cytotoxicity test on A2780 ovarian cancer cells; format: cell-based; details: A2780 ovarian cancer cell line, 72 hours incubation
Description: (§1) The biological (cytotoxicity) properties of the complexes synthesized above were tested on A2780 and A2780cisR (cisplatin-resistant) ovarian cancer cells according to a conventional procedure described below, and the IC50 values obtained were compared with those obtained under the same conditions with the cisplatin complex Pt (NH3)2Cl2.
(§2) The A2780 and A2780cisR ovarian cancer cell lines were obtained from The European Collection of Cell Cultures (ECACC) (Salisbury, UK). The cells were cultured in RPMI medium comprising glucose, 5% of fetal calf serum (FCS) and antibiotics, at 37° C. and 5% CO2.
(§3) The cytotoxicity was determined using the MTT (3-(4,5-dimethyl-2-thiazolyl)-2,5-diphenyl-2H-tetrazolium bromide) test (MOSMANN, 1983).
(§4) The cells were distributed in 96-well plates, as monolayers, with 100 μl of solution (approximately 20 000 cells) per well, and were preincubated for 24 hours in a medium supplemented with 10% of FCS.
(§5) The compounds were prepared in DMSO solution, were then dissolved in the culture medium and were successively diluted to the appropriate concentration, in order to obtain a final DMSO concentration of 0.5%. 100 μl of solution of these compounds were added to each well and the plates were incubated for 72 hours. Subsequently, MTT (5 mg/ml) was added to the cells and the plates were incubated for 2 hours. The culture medium was removed by suction and the purple formazan crystals formed by the mitochondrial dehydrogenase activity of the living cells were dissolved in DMSO.
(§6) The optical density, which is directly proportional to the number of living cells, was quantified at 540 nm using a multiwell plate reader and the fraction of living cells was quantified from the absorbance of untreated control cells. Evaluation was carried out from two independent experiments, each comprising 3 microcultures per concentration level.

[2] = test system: A2780cisR (cisplatin-resistant) ovarian cancer cells; test: MTT cytotoxicity test on A2780cisR (cisplatin-resistant) ovarian cancer cells; format: cell-based; details: A2780cisR (cisplatin-resistant) cell line, 72 hours incubation
Description: as §1, §2, §3, §4, §5, §6

With “o-[(C5Me5)Rh(η^4-benzoquinone)] [compound 1]” the IC50 [1] was > 400 µM.

“p-[(C5Me5)Ir(η^4-monoselenobenzoquinone)] [compound 9]” gave an IC50 [2] of 8.4 µM and an IC50 [1] of 12.3 µM.

For “o-[(C5Me5)Ir(η^4-benzoquinone)] [compound 3]”, the IC50 [1] was > 400 µM.

In the case of “p-[(C5Me5)Ir(η^4-benzoquinone)] [compound 4]”, the IC50 [1] is reported as 93 µM.

In the case of `N.N.[Cl][Pt][Cl]` [cis-[Pt(NH3)2Cl2], cis-diamminedichloroplatinum(II)], the IC50 [2] is reported as 25 µM and the IC50 [1] is reported as 3 µM.

For “p-[(C5Me5)Rh(η^4-benzoquinone)] [compound 2]”, the IC50 [1] was > 400 µM.

Compound “p-[(C5Me5)Ir(η^4-dithiobenzoquinone)] [compound 6]” has an IC50 [1] of 154 µM.

“p-[(C5Me5)Ir(η^4-diselenobenzoquinone)] [compound 8]” gave an IC50 [1] of 5 µM.

“p-[(C5Me5)Ir(η^4-2,5-dimethyldiselenobenzoquinone)] [compound 10]” gave an IC50 [2] of 7.3 µM and an IC50 [1] of 6.2 µM.

With “o-[(C5Me5)Ir(η^4-dithiobenzoquinone)] [compound 5]” the IC50 [1] was 49 µM.
